Measured values from patent US12503463B2, “Aliphatic acid amide derivative” (Sumitomo Pharma Co., Ltd., priority 2019, dated 2025).

Assay: Test 3-1: metabolic stability test in human hepatic microsome
Format: in vitro ADME
Settings: Test 3-1: microsome 0.1 mg/mL, test compound 0.1 μmol/L, 37° C., 30 minutes
Procedure: Test 3-1: Metabolic Stability Test in Human Hepatic Microsome
The metabolic stability of the present compound in human hepatic microsome was evaluated as mentioned below. Human hepatic microsome was obtained from Xenontech. Human hepatic microsome, NADPH, and each test compound were mixed in 25 mmol/L phosphate buffer solution (pH 7.4) to reach the following concentrations as shown below, and the mixture was incubated at 37° C. for 30 minutes. • Human hepatic microsome: 0.1 mg/mL • NAPDH: 3.2 mmol/L • Test compound: 0.1 μmol/L
The residual ratio of test compound in each sample after 30 minutes was measured by LC-MS, and the metabolic stability in human hepatic microsome was calculated from the following formula. Metabolic stability in human hepatic microsome(mL/min/mg protein)=−LN(residual ratio)/30/0.1
In the case of `CCN(CCN1CCC(c2noc3cc(F)ccc23)CC1)C(=O)CO` [Example 12], the “Metabolic stability in human hepatic microsome” value (“Metabolic stability” for short) is reported as 0.089 mL/min/mg protein. In the case of `CCN(CCN1CCC(c2noc3cc(F)ccc23)CC1)C(=O)C1(O)CC1` [Example 24], the “Metabolic stability” value is reported as <0.05 mL/min/mg protein. In the case of `CCN(CCN1CCC(c2noc3cc(F)ccc23)CC1)C(=O)C(C)O` (centres unmarked) [Example 4], the “Metabolic stability” value is reported as <0.05 mL/min/mg protein. With `CCN(CCN1CCC(c2noc3cc(F)ccc23)CC1)C(=O)C1CN(C)CC1O` (centres unmarked) [Example 75, N-Ethyl-N-{2-[4-(6-fluoro-1,2-benzoisoxazol-3-yl)piperidin-1-yl]ethyl}-4-hydroxy-1-methylpyrrolidine-3-carboxamide] the “Metabolic stability” value was <0.05 mL/min/mg protein. With `CCN(CCN1CCC(c2noc3cc(F)ccc23)CC1)C(=O)C1CN(C(C)=O)CCC1O` (centres unmarked) [Example 74] the “Metabolic stability” value was <0.05 mL/min/mg protein. For `CCN(CCN1CCC(c2noc3cc(F)ccc23)CC1)C(=O)C(O)C(F)(F)F` (centres unmarked) [Example 34], the “Metabolic stability” value was <0.05 mL/min/mg protein. For `CCN(CCN1CCC(c2noc3ccccc23)CC1)S(=O)(=O)CCO` [Example 61], the “Metabolic stability” value was <0.05 mL/min/mg protein. In the case of `CCN(CCN1CCC(c2noc3cc(F)ccc23)CC1)C(=O)C(F)(F)CO` [Example 36], the “Metabolic stability” value is reported as <0.05 mL/min/mg protein. For `CCN(CCN1CCC(c2c[nH]c3ccccc23)CC1)C(=O)[C@@H](C)O` [Example 49], the “Metabolic stability” value was <0.05 mL/min/mg protein. For `CCN(CCN1CCC(c2noc3cc(F)ccc23)CC1)C(=O)C1CCC(O)CC1` (centres unmarked) [Example 9], the “Metabolic stability” value was <0.05 mL/min/mg protein. In the case of `CCN(CCN1CCC(n2ncc3cc(F)ccc32)CC1)S(=O)(=O)CCO` [Example 63], the “Metabolic stability” value is reported as <0.05 mL/min/mg protein. In the case of `CC(C)N(CCN1CCC(c2noc3cc(F)ccc23)CC1)C(=O)[C@@H](C)O` [Example 42], the “Metabolic stability” value is reported as <0.05 mL/min/mg protein. With `CCN(CCN1CCC(n2ncc3cc(F)ccc32)CC1)C(=O)CCO` [Example 2, N-Ethyl-N-{2-[4-(5-fluoro-1H-indazol-1-yl)piperidin-1-yl]ethyl}-3-hydroxypropanamide] the “Metabolic stability” value was <0.05 mL/min/mg protein. With `[2H]C(C)(O)C(=O)N(CC)CCN1CCC(c2noc3cc(F)ccc23)CC1` (centres unmarked) [Example 40] the “Metabolic stability” value was <0.05 mL/min/mg protein. With `CCN(CCN1CCC(c2noc3cc(F)ccc23)CC1)C(=O)CC(C)O` (centres unmarked) [Example 10] the “Metabolic stability” value was <0.05 mL/min/mg protein. With `CCN(CCN1CCC(n2ncc3cc(F)ccc32)CC1)C(=O)[C@H](C)O` [Example 21, (2S)-N-Ethyl-N-{2-[4-(5-fluoro-1H-indazol-1-yl)piperidin-1-yl]ethyl}-2-hydroxypropanamide] the “Metabolic stability” value was <0.05 mL/min/mg protein. With `CCN(CCN1CCC(c2noc3cc(F)ccc23)CC1)C(=O)C1CC(O)C1` (centres unmarked) [Example 46] the “Metabolic stability” value was <0.05 mL/min/mg protein. In the case of `CC(C)N(CCN1CCC(c2noc3cc(F)ccc23)CC1)C(=O)CCO` [Example 35], the “Metabolic stability” value is reported as <0.05 mL/min/mg protein. For `CCN(CCN1CCC(c2noc3cc(F)ccc23)CC1)C(=O)C1(O)CCCN(C(C)=O)C1` (centres unmarked) [Example 72], the “Metabolic stability” value was 0.057 mL/min/mg protein. With `CCN(CCN1CCC(c2noc3cc(F)ccc23)CC1)C(=O)C1(O)CCCNC1` (centres unmarked) [Example 69] the “Metabolic stability” value was <0.05 mL/min/mg protein. For `CCN(CCN1CCC(c2c[nH]c3cc(F)ccc23)CC1)C(=O)CCO` [Example 48], the “Metabolic stability” value was <0.05 mL/min/mg protein. With `CCN(CCN1CCC(c2noc3cc(F)ccc23)CC1)C(=O)C1(O)CCOCC1` [Example 11] the “Metabolic stability” value was <0.05 mL/min/mg protein. With `CCN(CCN1CCC(c2c[nH]c3ccccc23)CC1)C(=O)[C@H](C)O` [Example 23, (2S)-N-Ethyl-2-hydroxy-N-{2-[4-(1H-indol-3-yl)piperidin-1-yl]ethyl}propanamide] the “Metabolic stability” value was <0.05 mL/min/mg protein. For `CCN(CCN1CCC(c2noc3ccc(C)cc23)CC1)S(=O)(=O)CCO` [Example 59], the “Metabolic stability” value was 0.079 mL/min/mg protein. With `CCN(CCN1CCN(c2noc3cc(F)ccc23)CC1)C(=O)C(C)O` (centres unmarked) [Example 27] the “Metabolic stability” value was <0.05 mL/min/mg protein. For `CCN(CCCN1CCC(c2noc3cc(F)ccc23)CC1)S(=O)(=O)C(C)CO` (centres unmarked) [Example 56], the “Metabolic stability” value was <0.05 mL/min/mg protein. For `CCN(CCN1CCC(c2c[nH]c3ccccc23)CC1)C(=O)CCO` [Example 47], the “Metabolic stability” value was <0.05 mL/min/mg protein. In the case of `CCN(CCN1CCC(c2noc3cc(F)ccc23)CC1)C(=O)C(C)(C)CO` [Example 7], the “Metabolic stability” value is reported as 0.08 mL/min/mg protein. With `CCN(CCN1CCC(n2ccc3cc(F)ccc32)CC1)C(=O)C(C)O` (centres unmarked) [Example 50] the “Metabolic stability” value was <0.05 mL/min/mg protein. In the case of `CCN(CCN1CCC(c2noc3cc(F)ccc23)CC1)C(=O)C1CNCC1O` (centres unmarked) [Example 66], the “Metabolic stability” value is reported as <0.05 mL/min/mg protein. In the case of `CCN(CCN1CCC(c2c[nH]c3cc(F)ccc23)CC1)S(=O)(=O)CCO` [Example 62], the “Metabolic stability” value is reported as <0.05 mL/min/mg protein. With `CC[C@@H](O)C(=O)N(CC)CCN1CCC(c2noc3cc(F)ccc23)CC1` [Example 29] the “Metabolic stability” value was <0.05 mL/min/mg protein. In the case of `CCN(CCN1CCN(c2noc3ccccc23)CC1)C(=O)C(C)O` (centres unmarked) [Example 26], the “Metabolic stability” value is reported as <0.05 mL/min/mg protein. For `CCN(CCN1CCC(c2noc3cc(F)ccc23)CC1)C(=O)[C@H]1CC[C@H](O)CC1` [Example 43], the “Metabolic stability” value was <0.05 mL/min/mg protein. For `CCN(CCN1CCC(c2c[nH]c3ccccc23)CC1)C(=O)C(C)O` (centres unmarked) [Example 22, N-Ethyl-2-hydroxy-N-{2-[4-(1H-indol-3-yl)piperidin-1-yl]ethyl}propanamide], the “Metabolic stability” value was <0.05 mL/min/mg protein. With `CCN(CCN1CCC(c2c[nH]c3ccccc23)CC1)S(=O)(=O)CCO` [Example 57] the “Metabolic stability” value was 0.06 mL/min/mg protein. In the case of `CCN(CCCN1CCN(c2noc3cc(F)ccc23)CC1)S(=O)(=O)C(C)CO` (centres unmarked) [Example 55], the “Metabolic stability” value is reported as 0.059 mL/min/mg protein. For `CCN(CCN1CCC(c2c[nH]c3cc(F)ccc23)CC1)C(=O)[C@H](C)O` [Example 20, (2S)-N-Ethyl-N-{2-[4-(6-fluoro-1H-indol-3-yl)piperidin-1-yl]ethyl}-2-hydroxypropanamide], the “Metabolic stability” value was <0.05 mL/min/mg protein. With `CCN(CCN1CCC(c2noc3cc(F)ccc23)CC1)C(=O)C1CN(C)CCC1O` (centres unmarked) [Example 76, N-Ethyl-N-{2-[4-(6-fluoro-1,2-benzoisoxazol-3-yl)piperidin-1-yl]ethyl}-4-hydroxy-1-methylpiperidine-3-carboxamide] the “Metabolic stability” value was <0.05 mL/min/mg protein. With `CCN(CCN1CCC(n2ncc3cc(F)ccc32)CC1)S(=O)(=O)C(C)CO` (centres unmarked) [Example 64] the “Metabolic stability” value was 0.097 mL/min/mg protein. For `CC(O)C(=O)N(CCN1CCC(c2noc3cc(F)ccc23)CC1)C(C)C` (centres unmarked) [Example 31], the “Metabolic stability” value was <0.05 mL/min/mg protein. For `CCCN(CCN1CCC(c2noc3cc(F)ccc23)CC1)C(=O)C(C)O` (centres unmarked) [Example 39], the “Metabolic stability” value was <0.05 mL/min/mg protein. With `CCN(CCN1CCC(c2noc3ccccc23)CC1)C(=O)C(C)O` (centres unmarked) [Example 25] the “Metabolic stability” value was <0.05 mL/min/mg protein. With `CCN(CCN1CCC(c2noc3cc(F)ccc23)CC1)C(=O)[C@H]1NCC[C@H]1O` [Example 68] the “Metabolic stability” value was <0.05 mL/min/mg protein. For `CCN(CCN1CCC(c2noc3cc(F)ccc23)CC1)C(=O)C1(O)CCNC1` (centres unmarked) [Example 70], the “Metabolic stability” value was <0.05 mL/min/mg protein. For `CCN(CCN1CCC(c2noc3cc(F)ccc23)CC1)C(=O)C(O)COC` (centres unmarked) [Example 18, N-Ethyl-N-{2-[4-(6-fluoro-1,2-benzoisoxazol-3-yl)piperidin-1-yl]ethyl}-2-hydroxy-3-methoxypropanamide], the “Metabolic stability” value was <0.05 mL/min/mg protein. For `CCN(CCCN1CCC(c2noc3cc(F)ccc23)CC1)S(=O)(=O)CCO` [Example 53], the “Metabolic stability” value was <0.05 mL/min/mg protein. With `CCN(CCN1CCC(c2noc3cc(F)ccc23)CC1)C(=O)C(C)CO` (centres unmarked) [Example 37] the “Metabolic stability” value was <0.05 mL/min/mg protein. With `CCN(CCN1CCC(c2noc3cc(F)ccc23)CC1)C(=O)C(C)(C)O` [Example 6] the “Metabolic stability” value was 0.053 mL/min/mg protein. In the case of `CCN(CCN1CCC(c2noc3ccc(F)cc23)CC1)C(=O)[C@H](C)O` [Example 45], the “Metabolic stability” value is reported as <0.05 mL/min/mg protein. For `CCN(CCN1CCC(n2ncc3cc(F)ccc32)CC1)C(=O)[C@@H](C)O` [Example 3, (2R)-N-Ethyl-N-{2-[4-(5-fluoro-1H-indazol-1-yl)piperidin-1-yl]ethyl}-2-hydroxypropanamide], the “Metabolic stability” value was <0.05 mL/min/mg protein. With `CCN(CCCN1CCC(c2noc3cc(F)ccc23)CC1)C(=O)[C@H](C)O` [Example 38] the “Metabolic stability” value was <0.05 mL/min/mg protein. For `CCN(CCN1CCC(c2noc3cc(F)c(C)cc23)CC1)C(=O)[C@H](C)O` [Example 13], the “Metabolic stability” value was 0.054 mL/min/mg protein. For `CCN(CCCN1CCC(c2noc3ccccc23)CC1)S(=O)(=O)C(C)CO` (centres unmarked) [Example 54], the “Metabolic stability” value was <0.05 mL/min/mg protein. For `CC(C)N(CCN1CCC(c2noc3cc(F)ccc23)CC1)C(=O)[C@H](C)O` [Example 41], the “Metabolic stability” value was <0.05 mL/min/mg protein. For `CC(O)C(=O)N(CCN1CCC(c2noc3cc(F)ccc23)CC1)CC1CC1` (centres unmarked) [Example 30], the “Metabolic stability” value was <0.05 mL/min/mg protein.
